Measurements taken from publication PMC11249646, “Small-Molecule Disruptors of the Interaction between Calcium- and Integrin-Binding Protein 1 and Integrin αIIbβ3 as Novel Antiplatelet Agents” (ACS Pharmacology & Translational Science, 2024).
Like-named read-outs stand apart in the source and are kept apart here.

Tests used:
[1] = molecular target: T1, CIB1-(His)6 : F-αIIb peptide (Homo sapiens, UniProt Q99828); experiment: MST competitive binding study; conditions: 200 nM F-αIIb, 4 μM CIB1-(His)6; n = 3/concentration
T1 construct: made in house
T1 sequence (Q99828 1-191): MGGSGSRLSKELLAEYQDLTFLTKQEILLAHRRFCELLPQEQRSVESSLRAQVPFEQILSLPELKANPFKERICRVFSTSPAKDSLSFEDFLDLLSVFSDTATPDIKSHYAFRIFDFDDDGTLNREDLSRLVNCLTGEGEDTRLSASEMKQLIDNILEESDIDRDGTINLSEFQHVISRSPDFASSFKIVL
Experimental: We sought to resolve this discrepancy by performing a competition binding study similar to the conditions of the FP HTS assay by utilizing the F-αIIb probe.
Figure 4 MST competitive binding assay. We selected 200 nM F-αIIb and a CIB1 concentration of 4 μM and tested both compounds. […] Panel (B) highlights the concentration range in which we observe different activities between the two compounds.
The binding affinity of the compounds to the CIB1-(His)6 protein in the presence of αIIb peptide was evaluated using FITC-labeled αIIb as well. Following manufacturer’s recommendation,[66] we first determined a minimum concentration of F-αIIb by performing a titration of the fluorophore (1 μM, 1:2, 8-points; final concentration range of 7.8 nM to 1 μM) in a 10 μL assay volume. Solutions were placed in standard capillaries and evaluated for the fluorescent signal using the Monolith NT.115 instrument. […] CIB1-(His)6 protein was titrated in a 2-fold dilution series (16-points, final concentration range of 15 nM to 500 μM), at a final volume of 12.5 μL. An equal volume of [2×] […] Solutions were placed in standard capillaries, incubated for approximately 1 h, and evaluated for a fluorescent signal with 50% LED excitation power, 20, 40, or 60% MST power (low, medium, high, respectively), MST on-time of 30 s, and off-time of 5 s.
Compounds were titrated in a 2-fold dilution series (16 points, final concentration range of 6.1 nM to 200 μM) and mixed with an equal volume CIB1-(His)6 protein and F-αIIb peptide (final concentrations of 4 μM and 200 nM, respectively). Solutions were incubated for 1 h at RT, then placed in standard capillaries, and evaluated for fluorescent signal (in triplicate) at the following parameters: 50% LED excitation power, 40% MST power, MST on-time of 30 s, and off-time of 5 s using Monolith NT.115 instrument. Dissociation constant (Kd) values were calculated by fitting the thermophoresis signal at 20 s of the thermograph using the MO Affinity Analysis software (Nanotemper Technologies, Munich, Germany) and confirmed using Graphpad Prism 7.

[2] = In vitro ADME: RLM stability; conditions: rat liver microsomes; read-out: Rat Liver Microsome Stability (t1/2)
[3] = In vitro ADME: solubility; assay type: physicochemical; conditions: read-out: Solubility
[4] = molecular target: T2, CIB1-(His)6 (Homo sapiens, UniProt Q99828); experiment: Microscale thermophoresis (MST) protein and small-molecule binding; conditions: MST; fluorescently labeled CIB1-(His)6 50 nM; read-out: equilibrium dissociation constant (Kd)
T2 construct: made in house
T2 sequence (Q99828 1-191): T1 sequence (Q99828 1-191)
Experimental: Determining a direct measurement of a molecule’s binding interaction with its target is a vital parameter for characterizing a chemical probe. We employed microscale thermophoresis (MST) for this purpose, leveraging its sensitivity and capacity to deliver quantitative data on the binding interaction.[35] […] We began by testing increasing amounts of the compound(s) and incubating them with the fluorescently labeled CIB1-(His)6, followed by the detection of the MST traces on the NT automated instrument (for more details see Materials and Methods Section). […] We were able to rule out compound interference with the histidine tag on CIB1 and/or the fluorophore used for the MST assay by testing the compounds with a fluorescently labeled hexa-histidine peptide (Figure S8B).
The binding affinity of the compounds to the CIB1-(His)6 protein was evaluated using microscale thermophoresis (MST). The recombinant protein was labeled with a fluorophore using Monolith His-tag labeling RED-tris-NTA second Generation kit (Nanotemper Technologies, Munich, Germany) following the manufacturer’s protocol. Compounds were titrated in a 2-fold dilution series (16 points, final concentration range of 6.1 nM to 200 μM) and incubated with the same volume of 50 nM (final concentration; 25 nM RED-tris-NTA) labeled recombinant protein for 30 min at RT (20 μL final assay volume). […] The dissociation constant (Kd) values were calculated by fitting the thermophoresis signal at 20 s of the thermograph using the MO Affinity Analysis software (Nanotemper Technologies, Munich, Germany) and confirmed using GraphPad Prism.

[5] = system: P-selectin (CD62P) exposure on human platelets; experiment: Thrombin-induced P-selectin (CD62P) exposure, flow cytometry; assay type: cell-based; conditions: various doses
Experimental: […]. These findings indicate that through the utilization of this FP assay, we successfully identified inhibitors of platelet function, which may warrant further assessment for their potential as antiplatelet agents.
Figure 6 Effect of compounds on human platelet activation. Representative platelet aggregation tracings of washed human platelet suspensions pretreated for 30 min at 37 °C with vehicle (DMSO) or compounds at indicated concentrations followed by activation with thrombin (0.03–0.1 U/mL). Panel (A): NCGC00071855. Panel (B–D): NCGC00351170. Panel (E): CD62P exposure was in the presence of NCGC00351170. Data represents mean ± SEM, n = 4 individual experiments; ns = non significant *P < 0.05, ***P < 0.001, ****P < 0.0001.
Whole blood was drawn by venipuncture from healthy adult volunteers (of both gender and race) with informed consent. Approval was obtained from the institutional review boards of Thomas Jefferson University, according to the Declaration of Helsinki. Blood was collected in acidified citrate dextrose as an anticoagulant. Platelet-rich plasma (PRP) and washed platelets were prepared, as previously described.[44] Platelet aggregation was performed using washed platelet suspensions containing 2 × 10^8 platelets/mL using a Chrono-Log Lumi-Aggregometer (Chrono-Log), as described previously.[11] Aggregation traces were recorded by using Aggrolink software (Chrono-Log). […]

[6] = molecular target: T3, CIB1 and αIIb interaction (GST-CIB1 : F-αIIb peptide) (Homo sapiens, UniProt Q99828); experiment: FP assay, 384-well format (screen); assay type: binding; set-up: 384-well SCREEN Efficacy (%): concentration or dose not given beside the values
T3 construct: made in house; host or cells: BL-21 plus RIL cells (E. coli)
T3 sequence (Q99828 1-191): T1 sequence (Q99828 1-191)

[7] = In vitro ADME: PAMPA permeability

In the case of `COc1ccccc1C(=O)c1no[n+]([O-])c1C(=O)c1ccccc1OC.O=C(O)C(F)(F)F` [NCGC00351170-01], the EC50 [1] is reported as 2.1 µM, the half-life [2] is reported as 1.52 min and the solubility [3] is reported as greater than 52 µg/mL. For the same compound, the Kd [4] was 2.9 µM, the “P-selectin (CD62P) exposure” value [5] was “dose-dependent inhibition of platelet activation” and the IC50 ([6]; 384-well FP assay, Table 1, read-out: FP assay IC50) was 4.19 µM. For the same compound, the “384-well SCREEN Efficacy (%)” value ([6]; F-αIIb peptide) was 57%, the “384-well SCREEN Confirm?” value ([6]; F-αIIb peptide, YES/NO) was “YES” and the IC50 ([6]; F-αIIb peptide, read-out: 384-well SCREEN IC50) was 7.9 µM. For the same compound, the IC50 ([6]; quoted in text for comparison with MST EC50, read-out: potency in the 384-well FP assays) was roughly 4 µM, the “Confirm and Selective?” value ([6]; selective toward αIIb: negative curve class and/or IC50 ratio of >3-fold and/or >2-fold efficacy vs scrambled peptide) was “Inconclusive” and the Papp [7] was 102 ×10⁻⁶ cm/s.
